In patent US10646494B2, “Heterocycle-substituted tetracyclic compounds and methods of use thereof for the treatment of viral diseases” (Merck Sharp & Dohme Corp., priority 2016, dated 2020):
Like-named read-outs stand apart in the source and are kept apart here.

What was measured:
Set-up in all cases: species or system Hepatitis C virus (HCV)
HCV replicon 1A = test: Cell-based HCV replicon assay (Replicon Assay A), replicon 1A; conditions: replicon RNA by real time PCR, cells harvested on day 3
Experimental: (§1) To measure cell-based anti-HCV activity of compounds of the present invention, two complimentary assays were employed using various replicons. In the first assay (“Replicon Assay A”), replicon cells were seeded at 2000 cells/well in 384-well 384-well flat bottom tissue culture treated clear bottom plate (Corning 3707) in the presence of the test compound. Various concentrations of test compound, typically in 10 serial dilutions, were added to the assay mixture, with the starting concentration ranging from 333.3 nM to […]. The final concentration of DMSO was 0.5%. Fetal bovine serum was 5%, in the assay media. Cells were harvested on day 3 by removing media and washing the cells with a suitable wash buffer. The cells are lysed with the addition of 1× Qiagen lysis buffer (Cat #1062731). The replicon RNA level was measured using real time PCR (TaqMan® EZ RT-PCR, Applied Biosystems 403028) with the following primers and probes: […]
(§2) Cyclophilin RNA was used as endogenous control and was amplified in the same reaction as NS5B (multiplex PCR). The real-time RT-PCR reactions were run on ABI PRISM 7900HT Sequence Detection System using the following program: 50° C. for 2 minutes, 60° C. for 30 minutes, 95° C. for 5 minutes, 40 cycles of 94° C. for 20 sec, 55° C. for 1 minutes.
(§3) The amount of HCV replicon RNA per cell is quantified using a linear regression curve for a known nanogram (ng) amount of HCV replicon total RNA. This is established by plotting the Cycle Threshold values (Ct) from the Neo probe and primer set versus the log (ng) for each HCV replicon total RNA standard. The amount of HCV RNA for each replicon sample is calculated by taking the sample's Ct value, minus the line intercept, divided by the slope of the line. Similarly, the amount of Cyclophilin mRNA per cell is also quantified using a linear regression curve for a known nanogram (ng) amount of HCV replicon total RNA. Again, this is established by plotting the Cycle Threshold values (Ct) from the Cyclophilin probe and primer set versus the log (ng) for each HCV replicon total RNA standard.
(§4) Data was obtained for various compounds of the present invention using the methods described in the Example above, and is presented in the table immediately below. Data for replicons 1A, 1AY93H and 2B were obtained using Replicon Assay A and data for replicons 1B were obtained using Replicon Assay B.

HCV replicon 1A Y93H = test: Cell-based HCV replicon assay (Replicon Assay A), replicon 1AY93H; conditions: read-out: Replicon EC50 (nM) 1A Y93H, replicon 1A Y93H, replicon RNA by real time PCR, cells harvested on day 3
Experimental: as §1, §2, §3, §4

HCV replicon 2B = test: Cell-based HCV replicon assay (Replicon Assay A), replicon 2B; conditions: read-out: Replicon EC50 (nM) 2B, replicon 2B, replicon RNA by real time PCR, cells harvested on day 3
Experimental: as §1, §2, §3, §4

HCV replicon 1B = test: Cell-based HCV replicon assay (Replicon Assay B), replicon 1B; conditions: replicon RNA by real-time PCR, incubated for 3 days
Experimental: In an alternate assay (“Replicon Assay B”), 1000 cells were seeded per well in a 384-well collagen coated black plate from Greiner bio-one (Cat #781946) in 5% FBS. Inhibitors of this invention were added at 24 h post-seeding, and the plates were incubated for 3 days. Cells were subsequently lysed with Qiagen lysis buffer (Cat #1062731) to extract the RNA. HCV replicon RNA level was measured by real-time PCR using the RNA-to-CT kit from Applied Biosystem (Cat #4392656) and genotype-specific primers and probes. The amplicon was located within NSSB. The sequence of the PCR primers are as follows: 5B.2F, ATGGACAGGCGCCCTGA (SEQ. ID NO. 1); 5B.2R, […] (SEQ. ID NO. 2); the probe sequence was FAM-labeled CACGCCATGCGCTGCGG (SEQ. ID NO. 3). To detect genotype 1A the primer 1A F, TGCGGAACCGGTGAGTACA and 1A R, […] were used; the probe sequence was FAM-[…].
The real-time RT-PCR reactions were run on ABI PRISM 7900HT or Viia7 Sequence Detection System using the following program: 48° C. for 30 minutes, 95° C. for 10 minutes, 40 cycles of 95° C. for 15 sec, 60° C. for 1 minutes. The 50% effective concentration (EC50) was the drug concentration necessary to achieve an increase in the cycle threshold (CT) of 1 over the projected baseline CT.
as §4

Structure (SMILES) | EC50 (HCV replicon 1A) [nM] | EC50 (HCV replicon 1A Y93H) [nM] | EC50 (HCV replicon 2B) [nM] | EC50 (HCV replicon 1B; Hepatitis C virus, 72 h) [nM] | EC50 (HCV replicon 1A; Hepatitis C virus, 72 h) [nM] | EC50 (HCV replicon 1A Y93H; Hepatitis C virus, 72 h) [nM] | EC50 (HCV replicon 2B; Hepatitis C virus, 72 h) [nM] | EC50 (HCV replicon 1B) [nM]
COC(=O)N[C@H](C(=O)N1CCC[C@H]1c1ncc(-c2cc(F)c3c(c2)OC(c2nc4ccccc4o2)n2c-3cc3cc(-c4cnc([C@@H]5CCCN5C(=O)[C@@H](NC(=O)OC)C(C)C)[nH]4)ccc32)[nH]1)C(C)C (single isomer, unassigned) [Compound 20] | 0.0023 | 0.075 | 0.32 | 0.0026 | – | – | – | –
COC(=O)N[C@H](C(=O)N1CCC[C@H]1c1ncc(-c2cc(F)c3c(c2)OC(c2cnns2)n2c-3cc3cc(-c4cnc([C@@H]5CCCN5C(=O)[C@@H](NC(=O)OC)C(C)C)[nH]4)ccc32)[nH]1)C(C)C (single isomer, unassigned) [Compound 22] | – | 0.048 | 0.14 | 0.0024 | 0.0015 | – | – | –
COC(=O)N[C@H](C(=O)N1CCC[C@H]1c1ncc(-c2cc(F)c3c(c2)OC(c2cc(C(C)C)no2)n2c-3cc3cc(-c4cnc([C@@H]5CCCN5C(=O)[C@@H](NC(=O)OC)C(C)C)[nH]4)ccc32)[nH]1)C(C)C (single isomer, unassigned) [Compound 25] | – | 0.026 | 0.3 | 0.0011 | 0.0012 | – | – | –
COC(=O)N[C@H](C(=O)N1CCC[C@H]1c1ncc(-c2cc(F)c3c(c2)OC(c2coc(C4CC4)n2)n2c-3cc3cc(-c4cnc([C@@H]5CCCN5C(=O)[C@@H](NC(=O)OC)C(C)C)[nH]4)ccc32)[nH]1)C(C)C (single isomer, unassigned) [Compound 35] | – | – | – | 0.003 | 0.0034 | – | – | –
CCc1nnc(C2Oc3cc(-c4cnc([C@@H]5CCCN5C(=O)[C@@H](NC(=O)OC)C(C)C)[nH]4)cc(F)c3-c3cc4cc(-c5cnc([C@@H]6CCCN6C(=O)C(NC(=O)OC)C(C)C)[nH]5)ccc4n32)s1 (single isomer, unassigned) [Compound 33] | 0.0028 | – | – | 0.0026 | – | – | – | –
COC(=O)N[C@H](C(=O)N1CCC[C@H]1c1ncc(-c2cc(F)c3c(c2)OC(c2cc(C4CC4)no2)n2c-3cc3cc(-c4cnc([C@@H]5CCCN5C(=O)[C@@H](NC(=O)OC)C(C)C)[nH]4)ccc32)[nH]1)C(C)C (single isomer, unassigned) [Compound 30] | – | 0.026 | 0.06 | 0.0017 | 0.0012 | – | – | –
CCc1cnc(C2Oc3cc(-c4cnc([C@@H]5CCCN5C(=O)[C@@H](NC(=O)OC)C(C)C)[nH]4)cc(F)c3-c3cc4cc(-c5cnc([C@@H]6CCCN6C(=O)[C@@H](NC(=O)OC)C(C)C)[nH]5)ccc4n32)o1 (single isomer, unassigned) [Compound 28] | 0.0021 | – | 2.09 | – | – | 0.31 | – | –
COC(=O)N[C@H](C(=O)N1CCC[C@H]1c1ncc(-c2cc(F)c3c(c2)OC(c2cc(C(C)C)no2)n2c-3cc3cc(-c4cnc([C@@H]5CCCN5C(=O)[C@@H](NC(=O)OC)C(C)C)[nH]4)ccc32)[nH]1)C(C)C (mixture of isomers) [Compound 6] | – | – | – | 0.0018 | 0.0017 | 0.088 | 0.36 | –
COC(=O)N[C@H](C(=O)N1CCC[C@H]1c1ncc(-c2cc(F)c3c(c2)OC(c2coc(C4CC4)n2)n2c-3cc3cc(-c4cnc([C@@H]5CCCN5C(=O)[C@@H](NC(=O)OC)C(C)C)[nH]4)ccc32)[nH]1)C(C)C (single isomer, unassigned) [Compound 36] | 0.0023 | – | – | – | – | 0.102 | 0.11 | 0.0029
COC(=O)N[C@H](C(=O)N1CCC[C@H]1c1ncc(-c2cc(F)c3c(c2)OC(c2nc4ccccc4o2)n2c-3cc3cc(-c4cnc([C@@H]5CCCN5C(=O)[C@@H](NC(=O)OC)C(C)C)[nH]4)ccc32)[nH]1)C(C)C (single isomer, unassigned) [Compound 19] | – | 4.36 | 2.67 | – | 0.0016 | – | – | –
COC(=O)N[C@H](C(=O)N1CCC[C@H]1c1ncc(-c2cc(F)c3c(c2)OC(c2cn4ccccc4n2)n2c-3cc3cc(-c4cnc([C@@H]5CCCN5C(=O)[C@@H](NC(=O)OC)C(C)C)[nH]4)ccc32)[nH]1)C(C)C (stereo partly shown) [Compound 14] | – | – | – | 0.0078 | 0.0057 | – | – | –
COC(=O)N[C@H](C(=O)N1CCC[C@H]1c1ncc(-c2cc(F)c3c(c2)OC(c2nc(C)co2)n2c-3cc3cc(-c4cnc([C@@H]5CCCN5C(=O)[C@@H](NC(=O)OC)C(C)C)[nH]4)ccc32)[nH]1)C(C)C (single isomer, unassigned) [Compound 23] | – | 12.7 | 6.16 | – | 0.0031 | – | – | –
COC(=O)N[C@H](C(=O)N1CCC[C@H]1c1ncc(-c2cc(F)c3c(c2)O[C@@H](c2cc(C(C)C)no2)n2c-3cc3cc(-c4cnc([C@@H]5CCCN5C(=O)[C@@H](NC(=O)OC)C(C)C)[nH]4)ccc32)[nH]1)C(C)C (single isomer, unassigned) [Compound 9] | – | 0.05 | 0.27 | – | 0.0036 | – | – | –
COC(=O)N[C@H](C(=O)N1CCC[C@H]1c1ncc(-c2cc(F)c3c(c2)OC(c2csnn2)n2c-3cc3cc(-c4cnc([C@@H]5CCCN5C(=O)[C@@H](NC(=O)OC)C(C)C)[nH]4)ccc32)[nH]1)C(C)C (mixture of isomers) [Compound 37] | – | – | – | 0.0036 | 0.004 | 0.857 | 1.32 | –
COC(=O)N[C@H](C(=O)N1CCC[C@H]1c1ncc(-c2cc(F)c3c(c2)O[C@@H](c2cc(C(C)C)no2)n2c-3cc3cc(-c4cnc([C@@H]5CCCN5C(=O)[C@@H](NC(=O)OC)C(C)C)[nH]4)ccc32)[nH]1)C(C)C (single isomer, unassigned) [Compound 10] | 0.0027 | 1.43 | 1.05 | – | – | – | – | –
COC(=O)N[C@H](C(=O)N1CCC[C@H]1c1ncc(-c2cc(F)c3c(c2)OC(c2nc4ccccc4n2C)n2c-3cc3cc(-c4cnc([C@@H]5CCCN5C(=O)[C@@H](NC(=O)OC)C(C)C)[nH]4)ccc32)[nH]1)C(C)C (mixture of isomers) [Compound 11] | – | – | – | – | 0.0081 | 21.6 | 8.23 | –
COC(=O)N[C@H](C(=O)N1CCC[C@@H]1c1ncc(-c2ccc3c(c2)cc2n3C(c3cnco3)Oc3cc(-c4cnc([C@H]5CCCN5C(=O)[C@H](NC(=O)OC)C(C)C)[nH]4)cc(F)c3-2)[nH]1)C(C)C (single isomer, unassigned) [Compound 17] | 0.0327 | 0.716 | – | – | – | – | 3.96 | –
